Source: ChEMBL document CHEMBL5727820, “Substituted carbonucleoside derivatives useful as anticancer agents” (2020)
Where “and” joins values, the source holds several entries; their conditions need not be identical. Identical values can stand only once.

assay: Biochemical Assay: Compounds were solubilized in DMSO and serially diluted, using 3-fold dilutions, into 100% DMSO at a concentration 50-fold greater than the desired assay concentration. Following dilution, 1 ul was added to an empty 96-well microtiter plate. PRMT5/MEP50 protein complex was combined with H4(1-21) peptide ([…]) in PRMT5 assay buffer (50 mM Tris pH 8.5, 50 mM NaCl, 5 mM MgCl2, 1 mM EDTA, 1 mM TCEP) and 44 ul was added to the microtiter plate containing compound. S-Adenosyl-L-methionine (SAM) was prepared by combining 3H labelled SAM with unlabelled SAM in PRMT5 assay buffer such that the final SAM concentration was 10 uM and the specific activity was 0.2 uCi/ul. The reaction was initiated by adding 5 ul of SAM stock to the microtiter plate. The final reaction conditions were 10 nM PRMT5/MEP50 complex, 200 nM peptide and 1 uM SAM. Following a 25 minute incubation at room temperature, the reaction was stopped with the addition of 100 uL of 20% TCA. The 3H-peptide product was captured using a 96-well filter plate (MSIPN4B, Millipore) and washed 5 times with PBS buffer. Scintillation fluid (100 ul) was added to the dried filter plate and counted in a liquid scintillation counter. IC50 values were determined by fitting the data to the standard 4-parameter dose response equation using Pfizer proprietary software.

Row | Compound | IC50
1 | Cc1nc(N)nc2c1ccn2[C@@H]1C[C@@H]([C@H](O)c2ccc(F)c(F)c2)[C@@H](O)[C@H]1O | 105 nM
2 | Cc1ncnc2c1ccn2[C@@H]1C[C@H]([C@](F)(CN)c2ccc(F)cc2)[C@@H](O)[C@H]1O | 18900 nM
3 | Cc1cc(N[C@@H]2C[C@H](Oc3ccc(F)cc3C#N)[C@@H](O)[C@H]2O)ncn1 | > 200000 nM
4 | O[C@@H]1[C@H](O)[C@H]([C@H](O)c2ccc(F)c(F)c2)C[C@H]1Nc1ncnc2[nH]ccc12 | 5770 nM
5 | Cc1ncnc(N(C)[C@@H]2C[C@H]([C@@H](O)c3ccc(F)c(F)c3)[C@@H](O)[C@H]2O)n1 | 297 nM
6 | O[C@@H]1[C@H](O)[C@@H]([C@@H](O)c2ccc(F)c(F)c2)C[C@H]1Nc1ncnc2[nH]ccc12 | 449 nM
7 | Cc1cccc(CC(O)[C@H]2C[C@@H](n3ccc4c(C)ncnc43)[C@H](O)[C@@H]2O)n1 (some centres not stated) | > 200000 nM
8 | Cc1nc(N)c2c(C)cn([C@@H]3C[C@H](Oc4cc(F)c(F)c5c4CNCC5)[C@@H](O)[C@H]3O)c2n1 | 1 nM
9 | Cc1ncnc2c1ccn2[C@@H]1C[C@H]([C@@H](F)c2ccc(F)cc2)[C@@H](O)[C@H]1O | 3 nM
10 | Cc1cc(N[C@@H]2C[C@H]([C@@H](O)c3ccc(F)c(F)c3)[C@@H](O)[C@H]2O)ncn1 | 59500 nM
11 | Cc1ncnc2c1ccn2[C@H]1C[C@@H](Oc2ccccc2CN)[C@H](O)[C@@H]1O | 25 nM
12 | Cc1nccc(N[C@@H]2C[C@H]([C@H](O)c3ccc(F)c(F)c3)[C@@H](O)[C@H]2O)n1 | 150 nM
13 | CO[C@H]1C[C@H](n2ccc3c(C)ncnc32)[C@H](O)[C@@H]1O | 5740 nM
14 | Cc1cc(N[C@H]2C[C@@H](Oc3ccc(F)cc3C#N)[C@H](O)[C@@H]2O)ncn1 | > 200000 nM
15 | Cc1ncnc2c1ccn2[C@@H]1CC([C@](C)(O)c2ccc(F)cc2)[C@@H](O)[C@H]1O (some centres not stated) | 17100 nM
16 | CN(c1ncnc(N)n1)[C@@H]1C[C@H]([C@@H](O)c2ccc(F)c(F)c2)[C@@H](O)[C@H]1O | 266 nM
17 | N#Cc1cccc2c(N[C@H]3C[C@H](C(O)c4ccc(F)c(F)c4)[C@@H](O)[C@H]3O)ncnc12 (some centres not stated) | > 200000 nM
18 | O[C@@H]1[C@H](O)[C@@H](Oc2cccc3c2CNCC3)C[C@H]1n1cc(F)c2c(Cl)ncnc21 | 2 nM
19 | Cc1ncnc2c1ccn2C1C[C@H](Oc2cccc3c2CNCC3)[C@@H](O)[C@H]1O (some centres not stated) | 1 nM
20 | Nc1ncnc2c1c(F)cn2[C@@H]1C[C@H](Oc2cccc3c2CNCC3)[C@@H](O)[C@H]1O | 8 nM and 28 nM
21 | CN(c1ccncn1)[C@@H]1C[C@H]([C@@H](O)c2ccc(F)c(F)c2)[C@@H](O)[C@H]1O | 466 nM
22 | COC(=O)c1cc(F)ccc1O[C@H]1C[C@@H](n2ccc3c(C)ncnc32)[C@H](O)[C@@H]1O | 10200 nM
23 | Nc1ncnc2c1ccn2[C@@H]1C[C@@H]([C@H](O)c2ccc(Cl)c(F)c2)[C@@H](O)[C@H]1O | 71 nM
24 | Cc1ncnc2c1ccn2[C@@H]1CC([C@@](C)(O)c2ccc(F)cc2)[C@@H](O)[C@H]1O (some centres not stated) | 64 nM

Row | Compound | IC50
25 | Cc1ncnc2c1ccn2[C@@H]1C[C@H](Oc2ccc(F)c3c2CNC[C@@H]3C)[C@@H](O)[C@H]1O | 2 nM
26 | CO[C@@H]1C[C@H](n2ccc3c(C)ncnc32)[C@H](O)[C@@H]1O | 2120 nM
27 | Cc1ncnc2c1ccn2[C@@H]1C[C@H](Oc2ccccc2CN)[C@@H](O)[C@H]1O | 1060 nM
28 | Cc1ncnc2c1ccn2[C@@H]1C[C@H](Oc2ccc(F)c3c2CNC[C@H]3C)[C@@H](O)[C@H]1O | 1 nM
29 | Cc1ncnc2c1ccn2[C@@H]1C[C@H](Oc2ccc(F)cc2[C@@H](C)N)[C@@H](O)[C@H]1O | 2 nM
30 | Nc1ncnc2c1ccn2[C@@H]1C[C@H]([C@@H](O)c2ccc(Cl)c(F)c2)[C@@H](O)[C@H]1O | 572 nM
31 | CN(c1cc(N)ncn1)[C@@H]1C[C@H]([C@@H](O)c2ccc(F)c(F)c2)[C@@H](O)[C@H]1O | 879 nM
32 | Cc1ncnc2c1ccn2[C@@H]1C[C@H]([C@@H](CN)c2ccc(F)cc2)[C@@H](O)[C@H]1O | 676 nM
33 | Cc1ncnc(N(C)[C@@H]2C[C@@H]([C@H](O)c3ccc(F)c(F)c3)[C@@H](O)[C@H]2O)n1 | 29500 nM
34 | Cc1nc(N)nc2c1ccn2[C@@H]1C[C@H]([C@@H](O)c2ccc(F)c(F)c2)[C@@H](O)[C@H]1O | 5 nM
35 | Cc1cn([C@@H]2C[C@H](Oc3ccc(F)c4c3CNCC4)[C@@H](O)[C@H]2O)c2ncnc(Cl)c12 | 1 nM
36 | CN(c1cc(N)ncn1)[C@@H]1C[C@@H]([C@H](O)c2ccc(F)c(F)c2)[C@@H](O)[C@H]1O | 17000 nM
37 | Cc1ncnc2c1ccn2[C@@H]1C[C@@H]([C@H](CN)c2ccc(F)cc2)[C@@H](O)[C@H]1O | 906 nM
38 | CN(c1ncnc(N)n1)[C@@H]1C[C@@H]([C@H](O)c2ccc(F)c(F)c2)[C@@H](O)[C@H]1O | 15700 nM
39 | Cc1ncnc2c1ccn2[C@@H]1C[C@H]([C@@H](O)c2ccc(F)cc2)[C@@H](O)[C@H]1O | 289 nM
40 | N#Cc1cccc2c(N[C@@H]3C[C@H](C(O)c4ccc(F)c(F)c4)[C@@H](O)[C@H]3O)ncnc12 (some centres not stated) | > 200000 nM
41 | Cc1cc(N[C@H]2C[C@@H](Oc3ccccc3C#N)[C@H](O)[C@@H]2O)ncn1 | > 200000 nM
42 | Cc1cc(N[C@@H]2C[C@H]([C@H](O)c3ccc(F)c(F)c3)[C@@H](O)[C@H]2O)ncn1 | 3580 nM
43 | CN(c1ccncn1)[C@@H]1C[C@@H]([C@H](O)c2ccc(F)c(F)c2)[C@@H](O)[C@H]1O | 15700 nM
44 | Cc1ncnc2c1ccn2[C@@H]1C[C@H](Oc2ccc(F)cc2[C@H](C)N)[C@@H](O)[C@H]1O | 123 nM
45 | Cc1ncnc2c1ccn2[C@@H]1C[C@H](Oc2cc(C(F)F)c(F)c3c2CNCC3)C(O)=C1O | 1 nM
46 | Cc1ncnc2c1ccn2[C@@H]1C[C@H]([C@H](F)c2ccc(F)cc2)[C@@H](O)[C@H]1O | 217 nM
47 | Cc1cc(N[C@@H]2C[C@H](Oc3ccccc3C#N)[C@@H](O)[C@H]2O)ncn1 | > 200000 nM
